The target of assay [1] is T1, hTREX1 (Homo sapiens, UniProt Q9NSU2).
T1 construct: host or cells: HCT116 dual cells
T1 sequence (Q9NSU2 1-314): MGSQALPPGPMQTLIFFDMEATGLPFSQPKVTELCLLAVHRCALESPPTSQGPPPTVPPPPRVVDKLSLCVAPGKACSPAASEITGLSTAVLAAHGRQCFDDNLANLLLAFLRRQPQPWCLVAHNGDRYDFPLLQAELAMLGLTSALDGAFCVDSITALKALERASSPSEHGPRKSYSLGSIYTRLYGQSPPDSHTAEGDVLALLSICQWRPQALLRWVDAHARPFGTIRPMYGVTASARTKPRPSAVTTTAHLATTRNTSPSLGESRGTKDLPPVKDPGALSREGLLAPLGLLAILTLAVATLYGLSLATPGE
Description: hTREX1 HCT116 Cell Assay (HCT116 dual cells, Lucia luciferase reporter of Type I interferon induction). It counts as cell-based. Conditions: TREX1i 4 h before pBR322/BstNI transfection, read after 48 h. The method in brief: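 HCT116 dual cells carrying an ISRE-type STAT1/STAT2-driven secreted Lucia luciferase reporter were pretreated with TREX1 inhibitor for 4 h (≤0.1% DMSO), then transfected with pBR322/BstNI DNA (100 ng/well, Lipofectamine LTX). Luciferase in medium read after 48 h at 37 °C.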
(Reporter assays use an easily measured gene product as a stand-in for the process of interest.)

The target in assay [2] is T2, full length mouse TREX1 (Mus musculus, UniProt Q91XB0).
T2 construct: N-terminally His-Tev tagged full length mouse TREX1; made in house; host or cells: E. coli
T2 sequence (Q91XB0 1-314): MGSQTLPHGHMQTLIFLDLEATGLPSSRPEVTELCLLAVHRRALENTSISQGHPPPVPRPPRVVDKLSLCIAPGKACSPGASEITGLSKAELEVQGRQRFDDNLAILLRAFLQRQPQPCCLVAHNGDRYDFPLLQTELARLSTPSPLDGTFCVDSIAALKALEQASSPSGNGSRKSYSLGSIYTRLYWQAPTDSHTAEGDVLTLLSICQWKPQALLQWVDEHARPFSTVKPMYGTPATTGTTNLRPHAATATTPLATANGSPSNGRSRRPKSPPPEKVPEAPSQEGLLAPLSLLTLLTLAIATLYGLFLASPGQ
Description: mTREX1 Biochemical Assay (fluorescence, dsDNA substrate degradation). Conditions: biochemical, read-out: mTREX1 IC50. In outline: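 Reaction run 18 h at 25° C. with 60 nM TEX615/quencher-labelled dsDNA and 6 pM mouse TREX1 in Tris buffer (pH 7.4, 5 mM MgCl2, 1.0% DMSO), enzyme having sat 4 h with compound across 10 concentrations. EDTA quench; substrate degradation measured as fluorescence increase.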

The target of assay [3] is T3, full length human TREX1 (Homo sapiens, UniProt Q9NSU2).
T3 construct: N-terminally His-Tev tagged full length human TREX1; made in house; host or cells: E. coli
T3 sequence (Q9NSU2 1-314): T1 sequence (Q9NSU2 1-314)
Description: hTREX1 Biochemical Assay (fluorescence, dsDNA substrate degradation). Conditions: biochemical, read-out: hTREX1 IC50. The method in brief:
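Cleavage of 60 nM TEX615/quencher-labelled dsDNA in pH 7.4 Tris buffer with 5 mM MgCl2, 1.0% DMSO, run 18 hours at 25° C, EDTA-quenched; fluorescence read-out.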

For assay [4], the target named is T4, human TREX2 (residues M44-A279) (Homo sapiens, UniProt Q9BQ50).
T4 construct: human TREX2 (residues M44-A279, expressed in E. coli); made in house; host or cells: E. coli
T4 sequence (Q9BQ50 44-279 isoform Q9BQ50-1): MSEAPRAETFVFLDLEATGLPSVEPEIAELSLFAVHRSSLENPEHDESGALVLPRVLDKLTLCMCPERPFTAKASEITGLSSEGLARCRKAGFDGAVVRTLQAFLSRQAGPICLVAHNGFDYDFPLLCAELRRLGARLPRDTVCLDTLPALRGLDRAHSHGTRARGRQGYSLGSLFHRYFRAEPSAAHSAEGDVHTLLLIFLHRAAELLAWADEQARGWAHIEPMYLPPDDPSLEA
The assay can be described thus: hTREX2 Biochemical Assay (fluorescence, dsDNA substrate degradation). To be noted: biochemical selectivity for hTREX1 vs hTREX2. In outline:
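N-His-Tev E. coli enzyme (50 pM) pre-incubated with compound 4 h at 25 °C, then 60 nM TEX615/quencher dsDNA added; 18 h at 25 °C, pH 7.4 Tris buffer with 5 mM MgCl2, 1.0% DMSO. EDTA-quenched; fluorescence 570 ex/615 em from liberated fluorophore, 10-point dose-response.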

From patent US20240246946A1, “MODULATORS OF TREX1” (Constellation Pharmaceuticals, Inc., priority 2021, published 2024) come the findings set out here.

Where only a bound is given, the exact number is not on record here.

With `COC(C)(C)Cn1cc(C(c2cc(F)ccc2Cl)C(C)c2nc(C(=O)Nc3cnoc3)c(O)c(=O)n2C)cn1` (single isomer, unassigned) [Example 93 D1E2], the IC50 (commonly the midpoint of a concentration-inhibition curve) in assay [1] was more than 100 nM; in assay [2] it was more than 10 nM; in assay [3] it was 1 to 10 nM. In addition, the “hTREX1 vs hTREX2 selectivity” value in assay [4] is “A (A = <25 fold selective for hTREX1)”.

In the case of `CC(c1nc(C(=O)Nc2cnoc2)c(O)c(=O)n1C)C(c1cnn(C(C)C)c1)c1ccccc1C#N` (single isomer, unassigned) [Example 105 D2E1], the IC50 in assay [1] is more than 100 nM; in assay [2], more than 10 nM; in assay [3] it was 1 to 10 nM. The “hTREX1 vs hTREX2 selectivity” value in assay [4] is on record as “A (A = <25 fold selective for hTREX1)”.

For the compound `Cc1ccnn1C(c1ccccc1C#N)C(C)c1nc(C(=O)Nc2cnoc2)c(O)c(=O)n1C` (single isomer, unassigned) [Example 138 D1E1], the IC50 is 10 to 100 nM in assay [1], 1 to 10 nM in assay [2] and less than 1 nM in assay [3]. For the same compound, the “hTREX1 vs hTREX2 selectivity” value in assay [4] was “B (B = 25 to 50-fold selective for hTREX1)”.

Consider `CC(c1nc(C(=O)Nc2cnoc2)c(O)c(=O)n1C)C(c1ccccc1C#N)c1cn(C)nc1C#N` (single isomer, unassigned) [Example 10 D2E1], for which the figures for the IC50 in assay [1], in assay [2] and in assay [3] were less than 10 nM, 1 to 10 nM and less than 1 nM, respectively. In addition, the “hTREX1 vs hTREX2 selectivity” value in assay [4] is “C (C = >50 fold selective for hTREX1)”.

Take `CCc1cnn(C(c2ccccc2Cl)C(C)c2nc(C(=O)Nc3cnoc3)c(O)c(=O)n2C)c1` (single isomer, unassigned) [Example 134 D1E1]: the IC50 in assay [1] is more than 100 nM; in assay [2], 1 to 10 nM; in assay [3] it was 1 to 10 nM. Besides, the “hTREX1 vs hTREX2 selectivity” value in assay [4] is given as “A (A = <25 fold selective for hTREX1)”.

For `CC(c1nc(C(=O)Nc2cnoc2)c(O)c(=O)n1C)C(c1cnn(CC2COC2)c1)c1cc(F)ccc1Cl` (single isomer, unassigned) [Example 94 D1E1], the results for the IC50 in assay [1], in assay [2] and in assay [3] were more than 100 nM, 1 to 10 nM and 1 to 10 nM, respectively. The “hTREX1 vs hTREX2 selectivity” value in assay [4] is given as “B (B = 25 to 50-fold selective for hTREX1)”.

Take `CC(c1nc(C(=O)Nc2cnoc2)c(O)c(=O)n1C)C(c1ccccc1Cl)c1cn(C)nc1F` (single isomer, unassigned) [Example 130 D1E1]: the IC50 in assay [1] was less than 10 nM; in assay [2], less than 1 nM; in assay [3] it was less than 1 nM. Moreover, the “hTREX1 vs hTREX2 selectivity” value in assay [4] is reported as “B (B = 25 to 50-fold selective for hTREX1)”.

As for `Cc1c(C(c2ccccc2C#N)C(C)c2nc(C(=O)Nc3cnoc3)c(O)c(=O)n2C)cnn1C` (single isomer, unassigned) [Example 4 D2E2], the IC50 in assay [1] is more than 100 nM; in assay [2], more than 10 nM; in assay [3], 1 to 10 nM. Moreover, the “hTREX1 vs hTREX2 selectivity” value in assay [4] is given as “B (B = 25 to 50-fold selective for hTREX1)”.

`Cc1cnc(C)c(C(c2ccccc2Cl)C(C)c2nc(C(=O)Nc3cnoc3)c(O)c(=O)n2C)n1` (single isomer, unassigned) [Example 120 D1E1]: the values for the IC50 in assay [1], in assay [2] and in assay [3] were less than 10 nM, 1 to 10 nM and less than 1 nM, respectively. Further, the “hTREX1 vs hTREX2 selectivity” value in assay [4] is given as “C (C = >50 fold selective for hTREX1)”.

Regarding `COCCn1cc(C(c2cc(F)ccc2C#N)C(C)c2nc(C(=O)Nc3cnoc3)c(O)c(=O)n2C)c(C)n1` (single isomer, unassigned) [Example 103 D1E1], the results for the IC50 in assay [1], in assay [2] and in assay [3] were more than 100 nM, more than 10 nM and more than 10 nM, respectively. Also, the “hTREX1 vs hTREX2 selectivity” value in assay [4] was “A (A = <25 fold selective for hTREX1)”.

`Cc1cnc(C)c(C(c2cc(F)ccc2C#N)C(C)c2nc(C(=O)Nc3cnoc3)c(O)c(=O)n2C)n1` (single isomer, unassigned) [Example 119 D1E2]: the IC50 in assay [1] was more than 100 nM; in assay [2], more than 10 nM; in assay [3] it was more than 10 nM. Further, the “hTREX1 vs hTREX2 selectivity” value in assay [4] is on record as “B (B = 25 to 50-fold selective for hTREX1)”.

Regarding `CC(c1nc(C(=O)Nc2cnoc2)c(O)c(=O)n1C)C(c1ccccc1Cl)c1cnn(C)c1C#N` (single isomer, unassigned) [Example 96 D1E1], the results for the IC50 in assay [1], in assay [2] and in assay [3] were more than 100 nM, 1 to 10 nM and less than 1 nM, respectively. The “hTREX1 vs hTREX2 selectivity” value in assay [4] is listed as “A (A = <25 fold selective for hTREX1)”.

In the case of `CC(c1nc(C(=O)Nc2cnoc2)c(O)c(=O)n1C)C(c1cnn(C(F)(F)F)c1)c1ccccc1C#N` (single isomer, unassigned) [Example 151 D1E1], the figures for the IC50 in assay [1], in assay [2] and in assay [3] were 10 to 100 nM, less than 1 nM and less than 1 nM, respectively. Further, in assay [4], the “hTREX1 vs hTREX2 selectivity” value is “B (B = 25 to 50-fold selective for hTREX1)”.

With `CC(c1nc(C(=O)Nc2cnoc2)c(O)c(=O)n1C)C(c1cnn(C)c1)c1ccc(F)cc1C#N` (single isomer, unassigned) [Example 15 D1E1], the IC50 was less than 10 nM in assay [1], 1 to 10 nM in assay [2] and less than 1 nM in assay [3]. The “hTREX1 vs hTREX2 selectivity” value in assay [4] is “C (C = >50 fold selective for hTREX1)”.

On to `Cc1cc(C(c2ccccc2C#N)C(C)c2nc(C(=O)Nc3cnoc3)c(O)c(=O)n2C)n(C)n1` (single isomer, unassigned) [Example 63 D1E1], for which the IC50 was less than 10 nM in assay [1], 1 to 10 nM in assay [2] and less than 1 nM in assay [3]. In addition, the “hTREX1 vs hTREX2 selectivity” value in assay [4] is given as “C (C = >50 fold selective for hTREX1)”.

Take `Cc1cnc(C)c(C(c2ccccc2Cl)C(C)c2nc(C(=O)Nc3cnoc3)c(O)c(=O)n2C)n1` (single isomer, unassigned) [Example 120 D2E2]: the IC50 in assay [1] was more than 100 nM; in assay [2], more than 10 nM; in assay [3] it was more than 10 nM. For the same compound, the “hTREX1 vs hTREX2 selectivity” value in assay [4] is reported as “C (C = >50 fold selective for hTREX1)”.

For `CC(c1nc(C(=O)Nc2cnoc2)c(O)c(=O)n1C)C(c1ccccc1Cl)n1cc2ccccc2n1` (single isomer, unassigned) [Example 141 D1E1], the IC50 was more than 100 nM in assay [1], 1 to 10 nM in assay [2] and 1 to 10 nM in assay [3]. The “hTREX1 vs hTREX2 selectivity” value in assay [4] is “A (A = <25 fold selective for hTREX1)”.
